Measured values published in patent publication US20210023074A1, “TREATMENT OF DEMYELINATING DISEASES” (Victoria Link Ltd., priority 2018, published 2021).
Where two headings read alike, the source gives them in different places.

Legend:
EAE-induced weight loss = format: in vivo, C57BL/6 mice; settings: 0.1 or 0.03 mg/kg i.p. daily from day 17
Protocol: Experimental detail: Female, C57BL/6 mice were immunized subcutaneously (s.c.) in the hind flanks to induce EAE using myelin oligodendrocyte glycoprotein (MOG) peptide 35-55 (50 μg/mouse) in complete Freund's adjuvant containing heat-killed Mycobacterium tuberculosis (500 μg/mouse). In addition, pertussis toxin (200 ng/mouse) was administered intraperitoneally (i.p.) on days 0 and 2. Mice were weighed and scored daily. On day 17 (dotted line), mice were started on daily treatment with vehicle only (Veh; 10% tween and 10% DMSO in saline) or Nalmefene (NaIM) at 0.1, 0.03, or 0.01 mg/kg by i.p. injection. Nalmefene was supplied by University of Kansas, Synthetic Chemical Biology Core Laboratory, 97.6% pure by HPLC). Treatment allocation was blinded. The disease was scored from 0-5 with 0 (normal), 1 (partial tail paralysis), 2 (full tail paralysis), 3 (one hind limb paralysed or severe disability in both hind limbs), 4 (complete paralysis of both hind limbs) and 5 (moribund). This model is a standard disease model for multiple sclerosis and is described in White et al. 2018. Scientific Reports. 8:259 which is incorporated herein by reference in its entirety. […]
Experimental detail: EAE was induced in female C57BL/6 mice as described in Example 1. Mice were weighed daily and the % change in body weight calculated. […]

[1] = test system: Alcohol consumption (Wistar and AA rat); settings: cited from earlier work
[2] = test system: lymphocyte populations in the spleen of EAE mice; assay: Splenocyte flow cytometry in chronic phase of EAE; format: in vivo, C57BL/6 mice; settings: 0.01 mg/kg i.p. daily, 27 days post treatment initiation
Protocol: Experimental detail: EAE was induced in female C57BL/6 mice as described in Example 1. On the day of disease onset (score >1), mice were started on daily treatment with vehicle only or nalmefene at 0.01 mg/kg by i.p. injection. During the chronic phase (27 days post treatment initiation), mice were culled and their splenocytes assessed by flow cytometry. The percentage of the major lymphocyte populations were identified using CD4 (CD4 T helper cells), CD8 (CD8 cytotoxic T cells), and B220 (B cells), and expressed as % live leukocytes (i.e. CD45^+ cells). Shown are the means and standard error of individual mice with n=3 (healthy), 4 (vehicle) and 9 (NaIM). No significant differences were found between vehicle and healthy or nalmefene by one-way ANOVA with Holm-Sidak's multiple comparison test.
Experimental detail: EAE was induced in female C57BL/6 mice as described in Figure A. On the day of disease onset (score >1), mice were started on daily treatment with vehicle only or nalmefene at 0.01 mg/kg by i.p. injection. During the chronic phase (27 days post treatment initiation), mice were culled and their splenocytes assessed by flow cytometry. Naïve CD4 T cells (CD4^+CD44^−CD62L^high), effector CD4 T cells (CD4^+CD44^+CD62L^−), and central memory CD4T cells (CD4^+CD44^+CD62L^high) are expressed as % CD4 T cells. “Teff:cm ratio” is the ratio of effector to central memory T cells. […]

spinal cord of EAE mice = assay: Luxol fast blue histology of spinal cord, % demyelination in EAE mice; format: in vivo, C57BL/6 mice; settings: 0.01 mg/kg i.p. daily from disease onset, chronic phase
Protocol: Experimental detail: EAE was induced in female C57BL/6 mice as described in Example 1. On the day of disease onset (score >1), mice were started on daily treatment with vehicle only or nalmefene at 0.01 mg/kg by i.p. injection. During the chronic phase (>24 days post treatment initiation), mice were culled, perfused with 4% paraformaldehyde and spinal cords were processed for histology. […] Shown are the means and standard error of individual values from vehicle (n=7) or 0.01 (n=3) nalmefene-treated EAE mice. *p<0.05 by one-way ANOVA with Holm-Sidak's multiple comparison test.

[3] = test system: infiltrating immune cells (CD45high) in brain of EAE mice; assay: Immune cell infiltration into the brain of EAE mice (flow cytometry); format: in vivo, C57BL/6 mice
Protocol: On day 17, mice were started on daily treatment with vehicle only (Veh) or nalmefene (NaIM) at 0.1 or 0.03 mg/kg by i.p. injection. On day 45 after immunization to induce EAE, mice were culled and immune cells isolated from the brains. Isolation was by Percoll gradient as described in White et al. 2018. Scientific Reports. 8:259. Once isolated, cells were stained with fluorescently labelled antibodies to identify specific immune cell types and analysed by flow cytometry. All infiltrating immune cells were identified by CD45^high expression; CD4 T cells were identified as CD45^highCD4^+, and macrophages as CD45^highCD11b^+Gr-1^−. The relative number of cells is expressed as a ratio to microglia (MG), a brain resident immune cell identified as CD45^mediumCD11b^+. ***p<0.001, **p<0.01, and *p<0.05 by one-way ANOVA with Dunnett's multiple comparison test.
Experimental detail: EAE was induced in female C57BL/6 mice as described in Example 1. […] Once isolated, cells were stained with fluorescently labelled antibodies to identify specific immune cell types and analysed by flow cytometry. […] The relative number of cells is expressed as a ratio to microglia (MG), a brain resident immune cell identified as CD45^mediumCD11b+. ****p<0.0001 and **p<0.01 by one-way ANOVA with Holm-Sidak's multiple comparison test compared to vehicle.

[4] = Alcohol consumption (AA rat), PO

C=C1CC[C@@]2(O)[C@H]3Cc4ccc(O)c5c4[C@@]2(CCN3CC2CC2)[C@H]1O5 [nalmefene, (4R,4aS,7aS,12bS)-3-(cyclopropylmethyl)-7-methylidene-2,4,5,6,7a,13-hexahydro-1H-4,12-methanobenzofuro[3,2-e]isoquinoline-4a,9-diol]
% change in body weight (EAE-induced weight loss): recover from EAE-induced weight loss
ED50 [1, 4]: 16.1 μg/kq
Inhibition (%) [1, 4]: 23%
Inhibition (%) ([1]; Alcohol consumption (Wistar and AA rat), SC, 4 days): 73%
Inhibition (%) ([1]; Alcohol consumption (Wistar and AA rat), SC, 26 days): 67%
Inhibition (%) ([1]; Alcohol consumption (Wistar rat), SC, 6 days): 75%
In vivo efficacy ED50 ([1]; SC administration, rat): 0.2 to 0.4 mg/kg
Teff:cm ratio (effector to central memory CD4 T cells) in spleen [2]: reduced ratio
proportion of major lymphocyte populations in the spleen (CD4, CD8, B220; % live leukocytes) [2]: does not alter the proportion of the major lymphocyte populations in the spleen
% demyelination of spinal cord (luxol fast blue) (spinal cord of EAE mice): significant reduction demyelination
number of infiltrating immune cells in brain (ratio to microglia) ([3]; 0.03 mg/kg i.p. daily from day 17, day 45): significantly reduced the number of infiltrating immune cells
number of infiltrating immune cells in brain (ratio to microglia) ([3]; 0.03 mg/kg i.p. daily from disease onset, chronic phase (>24 days)): significantly reduced the number of infiltrating immune cells
